For data set [1], the target named is T1, recombinant full-length PDE2A protein (Homo sapiens, UniProt O00408).
T1 construct: Expression of recombinant full-length PDE2A protein in insect Sf9 cells; GST (N); made in house; host or cells: insect Sf9 cells (baculovirus)
Put plainly: Evaluation of PDE2 phosphodiesterase inhibitory activity in vitro (fluorescence polarization, Transcreener AMP2/GMP2). It counts as biochemical. The following applies: IC50 classes; substrate 1 μM cGMP; room temperature one hour. Here is the method:
Experimental objective: The substituted Alexa Fluor 633 fluorescent dye on the AMP/GMP antibodies was detected by the fluorescence polarization analysis to determine the concentration of AMP/GMP produced in the reaction system, which was used to calculate the IC50 values of the test compounds against PDE2 phosphodiesterase.
The measured buffer solution: 10 mM Tris-HCl, pH 7.5, 5 mM MgCl2, 0.01% Brij 35, 1 mM DTT, and 1% DMSO.
Enzyme: Expression of recombinant full-length PDE2A protein in insect Sf9 cells using N-terminal GST-tag with baculovirus.
Transcreener® AMP^2/GMP^2 antibody, AMP2/GMP2 AlexaFluor 633 fluorescent dye.
The enzyme solution was prepared using freshly prepared buffer solution, and then added to the reaction holes, the DMSO solutions of the test compounds were added by the Echo550 non-contact nanoliter acoustic pipetting system, and then pre-incubated at room temperature for 10 minutes, the reaction was initiated by the addition of the substrate (1 μM cGMP), and then reacted at room temperature for one hour. And then the detection system (Transcreener® AMP^2/GMP^2 antibody, AMP2/GMP2 AlexaFluor 633 fluorescent dye) was added, reacted at room temperature for 90 minutes, the fluorescence polarization was detected using Ex/Em 620/688.
The fluorescence polarization intensity was converted to nM concentration by AMP/GMP standard curve, The relative enzyme activity relative to DMSO blank was calculated, IC50 values and curves were calculated using Prism software packages (GraphPad Software, San Diego Calif., USA).

Data set [2] can be described thus: Pharmacokinetic evaluation of compounds in SD rats. As to conditions: male, Sprague-Dawley, rat, plasma, single intravenous injection and oral administration. It counts as in vivo, Sprague Dawley rats. Here is the method: Experimental objective: The pharmacokinetics of test compounds in SD rats.
Sprague Dawley rats (male, 200-300 g, 7-9 weeks old, Shanghai Slack).
The pharmacokinetic characteristics of rodents after intravenous and oral administration of the compounds were tested according to the standard protocol, in the experiment, the candidate compound was formulated into a clear solution, and the rats were given single intravenous injection and oral administration. Intravenous and oral solvents are a certain proportion of hydroxypropyl βcyclodextrin aqueous solution or physiological saline solution. Blood samples within 24 hours were collected, centrifuged (3000 g) for 15 minutes, the supernatant were separated to obtain the plasma samples, the protein was precipitated by adding a 4 times volume of acetonitrile solution that containing the internal standard, centrifuged and the supernatant was then centrifuged after adding equal volume of water, then the supernatant was injected, the plasma concentration was quantitatively analyzed by LC-MS/MS analysis, and pharmacokinetics parameters such as peak concentration, peak time, clearance rate, half-life, drug area under the curve, bioavailability etc. are calculated.

T1 sequence (O00408 whole entry, species assumed): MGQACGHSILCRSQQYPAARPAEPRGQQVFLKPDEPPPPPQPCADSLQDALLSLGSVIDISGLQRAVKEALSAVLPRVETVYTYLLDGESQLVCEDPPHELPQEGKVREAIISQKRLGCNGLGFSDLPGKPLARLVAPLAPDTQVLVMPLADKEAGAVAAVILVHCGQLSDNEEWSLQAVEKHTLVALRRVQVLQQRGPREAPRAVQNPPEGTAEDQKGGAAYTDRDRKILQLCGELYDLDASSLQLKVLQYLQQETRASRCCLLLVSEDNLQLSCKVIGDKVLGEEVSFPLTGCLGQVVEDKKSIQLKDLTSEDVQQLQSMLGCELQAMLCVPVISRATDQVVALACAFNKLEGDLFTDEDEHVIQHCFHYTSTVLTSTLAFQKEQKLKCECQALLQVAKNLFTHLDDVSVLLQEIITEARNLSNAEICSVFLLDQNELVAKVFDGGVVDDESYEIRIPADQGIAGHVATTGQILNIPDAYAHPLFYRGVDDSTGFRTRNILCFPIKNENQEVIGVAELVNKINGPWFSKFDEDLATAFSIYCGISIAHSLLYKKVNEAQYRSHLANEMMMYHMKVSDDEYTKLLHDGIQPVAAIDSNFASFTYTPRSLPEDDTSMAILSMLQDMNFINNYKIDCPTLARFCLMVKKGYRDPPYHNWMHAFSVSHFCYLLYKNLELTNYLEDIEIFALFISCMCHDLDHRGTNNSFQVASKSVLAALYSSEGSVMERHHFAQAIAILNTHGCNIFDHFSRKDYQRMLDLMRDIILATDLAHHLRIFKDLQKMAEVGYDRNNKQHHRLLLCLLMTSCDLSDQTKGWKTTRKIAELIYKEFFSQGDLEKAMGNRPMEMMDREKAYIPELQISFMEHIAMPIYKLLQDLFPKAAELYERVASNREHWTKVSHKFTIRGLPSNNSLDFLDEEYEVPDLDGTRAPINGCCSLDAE

As for “3,7-Dimethyl-1-[[3-[2,2,2-trifluoro-1-hydroxy-1-(trifluoromethyl)ethyl]cyclobutyl]methyl]purine-2,6-dione [Embodiment 8 isomer 1]”, the IC50 (as a rule, the concentration needed to halve the response being measured) in data set [1] lay within 1 to 10 µM.
Same read-out and setting: the same measure for “3,7-Dimethyl-1-[[3-[2,2,2-trifluoro-1-hydroxy-1-(trifluoromethyl)ethyl]cyclobutyl]methyl]purine-2,6-dione [Embodiment 8 isomer 2]”: 10 to 50 µM; for `Cn1cnc2c1c(=O)n(CC1CC(C(C)(O)C(F)(F)F)C1)c(=O)n2C` (single isomer, unassigned) [Embodiment 9 isomer 1]: 10 to 50 µM.
Turning to `Cn1cnc2c1c(=O)n(CCC1CCC(O)(C(F)(F)F)CC1)c(=O)n2C` (single isomer, unassigned) [Embodiment 15 isomer 1], in data set [1], the IC50 was in the range of 1 to 10 µM.
For `Cn1c(=O)n(CC2CCC(C)(O)CC2)c(=O)c2c1ncn2CC(F)(F)F` (single isomer, unassigned) [Embodiment 46 isomer 2], the IC50 in data set [1] lay in the range of 10 to 50 µM.
On the same count and under the same terms, the same measure for `Cn1c(=O)n(CC2CCC(O)(C(F)(F)F)CC2)c(=O)c2c1ncn2CC1CC1` (single isomer, unassigned) [Embodiment 50 isomer 1, 7-(Cyclopropylmethyl)-1-((4-hydroxy-4-(trifluoromethyl)cyclohexyl)methyl)-3-methyl-1H-purine-2,6(3H,7H)-dione]: 10 to 50 µM; for `Cn1c(=O)n(CC2CCC(C)(O)CC2)c(=O)c2c1ncn2CC1CC1` (single isomer, unassigned) [Embodiment 51 isomer 1]: 10 to 50 µM.
Regarding `CC(C)Cn1cnc2c1c(=O)n(CC1CCC(O)(C(F)(F)F)CC1)c(=O)n2C` (single isomer, unassigned) [Embodiment 58 isomer 2, 1-((4-Hydroxy-4-(trifluoromethyl)cyclohexyl)methyl)-7-isobutyl-3-methyl-1H-purine-2,6(3H,7H)-dione], the bioavailability (commonly dose-corrected exposure relative to a reference, in per cent) in data set [2] (read-out: Bioavailability F) is 42.6%. In addition, the clearance in data set [2] (read-out: Clearance rate) is 71.6 mL/min/kg. In addition, the AUC in data set [2] (read-out: Concentration integration AUC) is 2.49 µM·h. Besides, the half-life in data set [2] (read-out: Half-life T1/2 (converted)) was 33.6 min.
Turning to `Cn1cnc2c1c(=O)n(CCCCC1(O)CC1)c(=O)n2C` [Embodiment 3, 1-(4-(1-Hydroxycyclopropyl)butyl)-3,7-dimethyl-1H-purine-2,6(3H,7H)-dione], the half-maximal inhibitory concentration (IC50) in data set [1] was in the range of 10 to 50 µM.
On the same count and under the same terms, the same measure for `Cn1cnc2c1c(=O)n(CC1(C(C)(O)C(F)(F)F)CC1)c(=O)n2C` (centres unmarked) [Embodiment 4, 3,7-Dimethyl-1-((1-(1,1,1-trifluoro-2-hydroxypropan-2-yl)cyclopropyl)methyl)-1H-purine-2,6-(3H,7H)-dione]: 1 to 10 µM.
As to `Cn1cnc2c1c(=O)n(CC1CC(O)(C(F)(F)F)C1)c(=O)n2C` (centres unmarked) [Embodiment 5], the 50% inhibitory concentration (IC50) in data set [1] was 10 to 50 µM.
On the same count and under the same terms, the same measure for `CCC(O)(CC)C1CCC(Cn2c(=O)c3c(ncn3C)n(C)c2=O)CC1` (centres unmarked) [Embodiment 18, 1-((4-(3-Hydroxypentan-3-yl)-cyclohexyl)methyl)-3,7-dimethyl-1H-purine-2,6(3H,7H)-dione]: 1 to 10 µM; for `Cn1cnc2c1c(=O)n(C[C@H]1CC[C@H](C(C)(O)C(F)(F)F)CC1)c(=O)n2C` (stereo partly drawn) [Embodiment 19, 3,7-Dimethyl-1-[[trans-4-(2,2,2-trifluoro-1-hydroxy-1-methyl-ethyl)cyclohexyl]methyl]purine-2,6-dione]: 10 to 50 µM.
Regarding `Cn1cnc2c1c(=O)n(C[C@H]1CC[C@H](C(O)(C(F)(F)F)C(F)(F)F)CC1)c(=O)n2C` [Embodiment 20, 3,7-Dimethyl-1-[trans-4-(2,2,2-trifluoro-1-hydroxy-1-trifluoromethyl-ethyl)cyclohexylmethyl]-3,7-dihydro-purine-2,6-dione], the IC50 in data set [1] fell in the range of 10 to 50 µM.
Same read-out and setting: the same measure for `Cn1cnc2c1c(=O)n(C[C@H]1CC[C@H](C3(O)CC3)CC1)c(=O)n2C` [Embodiment 21, 1-[[trans-4-(1-hydroxycyclopropyl)cyclohexyl]methyl]-3,7-dimethylpurine-2,6-dione]: 10 to 50 µM.
The same measure, in the same setting: the same measure for `CCC1(O)CCCC(CCn2c(=O)c3c(ncn3C)n(C)c2=O)C1` (centres unmarked) [Embodiment 22, 1-(2-(3-Ethyl-3-hydroxycyclohexyl)ethyl)-3,7-dimethyl-1H-purine-2,6(3H,7H)-dione]: 1 to 10 µM; for `CCC(O)(CC)c1ccc(Cn2c(=O)c3c(ncn3C)n(C)c2=O)cc1` [Embodiment 25, 1-(4-(3-Hydroxypentan-3-yl)benzyl)-3,7-dimethyl-1H-purine-2,6(3H,7H)-dione]: 1 to 10 µM; for `Cn1cnc2c1c(=O)n(Cc1cccc(C(C)(O)C(F)(F)F)c1)c(=O)n2C` (centres unmarked) [Embodiment 26, 3,7-dimethyl-1-(3-(1,1,1-trifluoro-2-hydroxypropan-2-yl)benzyl)-1H-purine-2,6-(3H,7H)-dione]: 10 to 50 µM.
For `Cn1cnc2c1c(=O)n(Cc1cc(C(O)(C(F)(F)F)C(F)(F)F)no1)c(=O)n2C` [Embodiment 31], the IC50 in data set [1] fell in the range of 10 to 50 µM.
Same read-out and setting: the same measure for `Cn1cnc2c1c(=O)n(Cc1csc(C(C)(O)C(F)(F)F)n1)c(=O)n2C` (centres unmarked) [Embodiment 33, 3,7-Dimethyl-1-((2-(1,1,1-trifluoro-2-hydroxypropan-2-yl)thiazol-4-yl)methyl)-1H-purine-2,6-(3H,7H)-dione]: 10 to 50 µM.
On to `Cc1sc(C(C)(O)C(F)(F)F)nc1Cn1c(=O)c2c(ncn2C)n(C)c1=O` (centres unmarked) [Embodiment 34], for which the IC50 in data set [1] lay in the range of 10 to 50 µM.
Still for that read-out and setting: the same measure for `Cn1cnc2c1c(=O)n(Cc1cnc(C(C)(O)C(F)(F)F)s1)c(=O)n2C` (centres unmarked) [Embodiment 35, 3,7-Dimethyl-1-((2-(1,1,1-trifluoro-2-hydroxypropan-2-yl)thiazol-5-yl)methyl)-1H-purine-2,6-(3H,7H)-dione]: 10 to 50 µM; for `Cc1nc(C(C)(O)C(F)(F)F)sc1CCn1c(=O)c2c(ncn2C)n(C)c1=O` (centres unmarked) [Embodiment 36, 3,7-Dimethyl-1-(2-(4-methyl-2-(1,1,1-trifluoro-2-hydroxypropan-2-yl)thiazol-5-yl)ethyl)-1H-purine-2,6-(3H,7H)-dione]: 10 to 50 µM; for `CCn1cnc2c1c(=O)n(CCCCC(O)(CC)CC)c(=O)n2C` [Embodiment 42, 7-Ethyl-1-(5-ethyl-5-hydroxyheptyl)-3-methyl-1H-purine-2,6(3H,7H)-dione]: 1 to 10 µM.
Same read-out and setting: the same measure for `CCn1cnc2c1c(=O)n(CCCCC(C)(O)C(F)(F)F)c(=O)n2C` (centres unmarked) [Embodiment 43, 7-Ethyl-3-methyl-1-(6,6,6-trifluoro-5-hydroxy-5-methylhexyl)-1H-purine-2,6(3H,7H)-dione]: 10 to 50 µM.
Still for that read-out and setting: the same measure for `Cn1c(=O)n(CCCCC(C)(O)C(F)(F)F)c(=O)c2c1ncn2C1CC1` (centres unmarked) [Embodiment 47, 7-Cyclopropyl-3-methyl-1-(6,6,6-trifluoro-5-hydroxy-5-methylhexyl)-1H-purine-2,6(3H,7H)-dione]: 10 to 50 µM; for `CC(C)n1cnc2c1c(=O)n(CC1CCC(O)(C(F)(F)F)CC1)c(=O)n2C` (centres unmarked) [Embodiment 48]: 10 to 50 µM; for `COCC1(Cn2c(=O)c3c(ncn3CC3CC3)n(C)c2=O)CCC(O)(C(F)(F)F)CC1` (centres unmarked) [Embodiment 52]: 10 to 50 µM.
For the compound `Cn1c(=O)n(CC2(C)CCC(O)(C(F)(F)F)CC2)c(=O)c2c1ncn2CC1CC1` (centres unmarked) [Embodiment 53], the concentration for half-maximal inhibition (IC50) in data set [1] lay in the range of 10 to 50 µM.
Consider `Cc1sc(C(C)(O)C(F)(F)F)nc1Cn1c(=O)c2c(ncn2CC2CC2)n(C)c1=O` (centres unmarked) [Embodiment 54, 7-(Cyclopropylmethyl)-3-methyl-1-((5-methyl-2-(1,1,1-trifluoro-2-hydroxypropan-2-yl)thiazol-4-yl)methyl)-1H-purine-2,6-(3H,7H)-dione], for which the IC50 in data set [1] lay in the range of 1 to 10 µM.
Turning to `Cn1c(=O)n(Cc2ccc(C(C)(O)C(F)(F)F)cn2)c(=O)c2c1ncn2CC1CC1` (centres unmarked) [Embodiment 56], the 50% inhibitory concentration (IC50) in data set [1] was in the range of 10 to 50 µM.
As to `CC(C)Cn1cnc2c1c(=O)n(CC1CCC(O)(C(F)(F)F)CC1)c(=O)n2C` (centres unmarked) [Embodiment 57, 1-((4-Hydroxy-4-(trifluoromethyl)cyclohexyl)methyl)-7-isobutyl-3-methyl-1H-purine-2,6(3H,7H)-dione], the IC50 in data set [1] was in the range of 1 to 10 µM.

The record behind these values is USRE49128E1, “Hydroxyl purine compounds and applications thereof” (GUANGDONG RAYNOVENT BIOTECH CO., LTD., priority 2014, dated 2022).
